In EP0013067A1, “Bicyclic beta-lactam antibacterial agents, their use in pharmaceutical compositions, processes for their preparation and intermediates for use in such processes” (BEECHAM GROUP PLC, priority 1978, dated 1980) one finds MIC data, which are given here for two compounds.

Common to all, as to type: cell-based
The test system of one assay is Bacillus subtilis A. The experiment in a line: MIC, DST agar + 10% horse blood. To be noted: Bacillus subtilis A; DST agar + 10% horse blood; inoculum 0.001 ml of a 10^-2 dilution for G + ve bacteria or a 10^-4 dilution for G - ve organisms; read-out: MIC Agar. An excerpt:
(§1) The ninimum inhibitory concentrations (MIC) cf this compound required to inhibit the growth of various bacteria are tabulated balow: […]

The test system of assay [1] is Escherichia coli 0111. As to the kind of experiment: MIC, DST agar + 10% horse blood. The note with it: Escherichia coli 0111, inoculum 0.001 ml of a 10^-2 dilution for G + ve bacteria or a 10^-4 dilution for G - ve organisms.
From the text: as §1

Assay [2] deals with Klebsiella aerogenes A. As to the kind of experiment: MIC, DST agar + 10% horse blood. The note with it: Klebsiella aerogenes A; DST agar + 10% horse blood; inoculum 0.001 ml of a 10^-2 dilution for G + ve bacteria or a 10^-4 dilution for G - ve organisms; read-out: MIC Agar.
From the text: as §1

The subject of assay [3] is Proteus mirabilis C977. The experiment in a line: MIC, DST agar + 10% horse blood. To be noted: Proteus mirabilis C977; DST agar + 10% horse blood; inoculum 0.001 ml of a 10^-2 dilution for G + ve bacteria or a 10^-4 dilution for G - ve organisms; read-out: MIC Agar.
From the text: as §1

In the next assay the test system is Proteus morganii I580. As to the kind of experiment: MIC, DST agar + 10% horse blood. The note with it: Morganella morganii; Proteus morganii I580; DST agar + 10% horse blood; inoculum 0.001 ml of a 10^-2 dilution for G + ve bacteria or a 10^-4 dilution for G - ve organisms; read-out: MIC Agar.
From the text: as §1

The test system of a further assay is Proteus rettgeri WM16. As to the kind of experiment: MIC, DST agar + 10% horse blood. The note with it: Providencia rettgeri; Proteus rettgeri WM16; DST agar + 10% horse blood; inoculum 0.001 ml of a 10^-2 dilution for G + ve bacteria or a 10^-4 dilution for G - ve organisms; read-out: MIC Agar.
From the text: as §1

In another assay the test system is Proteus vulgaris W091. The experiment in a line: MIC, DST agar + 10% horse blood. To be noted: Proteus vulgaris W091; DST agar + 10% horse blood; inoculum 0.001 ml of a 10^-2 dilution for G + ve bacteria or a 10^-4 dilution for G - ve organisms; read-out: MIC Agar.
From the text: as §1

Assay [4] deals with Pseudomonas aeruginosa A. The experiment in a line: MIC, DST agar + 10% horse blood. To be noted: Pseudomonas aeruginosa A; DST agar + 10% horse blood; inoculum 0.001 ml of a 10^-2 dilution for G + ve bacteria or a 10^-4 dilution for G - ve organisms; read-out: MIC Agar.
From the text: as §1

Assay [5] deals with Salmonella typhimurium CT10. The experiment in a line: MIC, DST agar + 10% horse blood. The note with it: Salmonella enterica; Salmonella typhimurium CT10; DST agar + 10% horse blood; inoculum 0.001 ml of a 10^-2 dilution for G + ve bacteria or a 10^-4 dilution for G - ve organisms; read-out: MIC Agar.
From the text: as §1

The next assay concerns Serratia marcescens US20. The experiment in a line: MIC, DST agar + 10% horse blood. To be noted: Serratia marcescens US20; DST agar + 10% horse blood; inoculum 0.001 ml of a 10^-2 dilution for G + ve bacteria or a 10^-4 dilution for G - ve organisms; read-out: MIC Agar.
From the text: as §1

In the next assay the test system is Shigella sonnei MB 11967. The experiment in a line: MIC, DST agar + 10% horse blood. The note with it: MB11967, inoculum 0.001 ml of a 10^-2 dilution for G + ve bacteria or a 10^-4 dilution for G - ve organisms.
From the text: as §1

For assay [6], the system named is Staphylococcus aureus 1517. As to the kind of experiment: MIC, DST agar + 10% horse blood. To be noted: Staphylococcus aureus 1517; DST agar + 10% horse blood; inoculum 0.001 ml of a 10^-2 dilution for G + ve bacteria or a 10^-4 dilution for G - ve organisms; read-out: MIC Agar.
From the text: as §1

Assay [7] relates to Staphylococcus aureus Oxford. As to the kind of experiment: MIC, DST agar + 10% horse blood. To be noted: Staphylococcus aureus Oxford; DST agar + 10% horse blood; inoculum 0.001 ml of a 10^-2 dilution for G + ve bacteria or a 10^-4 dilution for G - ve organisms; read-out: MIC Agar.
From the text: as §1

For assay [8], the system named is Staphylococcus aureus Russell. As to the kind of experiment: MIC, DST agar + 10% horse blood. The note with it: Staphylococcus aureus Russell; DST agar + 10% horse blood; inoculum 0.001 ml of a 10^-2 dilution for G + ve bacteria or a 10^-4 dilution for G - ve organisms; read-out: MIC Agar.
From the text: as §1

A further assay deals with Streptococcus faecalis I. As to the kind of experiment: MIC, DST agar + 10% horse blood. The note with it: Enterococcus faecalis; Streptococcus faecalis I; DST agar + 10% horse blood; inoculum 0.001 ml of a 10^-2 dilution for G + ve bacteria or a 10^-4 dilution for G - ve organisms; read-out: MIC Agar.
From the text: as §1

Assay [9] deals with Streptococcus pyogenes CN10. As to the kind of experiment: MIC, DST agar + 10% horse blood. To be noted: Streptococcus pyogenes CN10; DST agar + 10% horse blood; inoculum 0.001 ml of a 10^-2 dilution for G + ve bacteria or a 10^-4 dilution for G - ve organisms; read-out: MIC Agar.
From the text: as §1

Assay [10] has as its system Escherichia coli 0111. The experiment in a line: MIC, microtitre using Nutrient broth. The note with it: Microtitre using nutrient broth, inoculum 0.001 ml of a 10^-2 dilution for G + ve bacteria or a 10^-4 dilution for G - ve organisms.
From the text: as §1

A further assay concerns Escherichia coli JT 39. The experiment in a line: MIC, microtitre using Nutrient broth. To be noted: JT39; Escherichia coli JT 39; Microtitre using nutrient broth; inoculum 0.001 ml of a 10^-2 dilution for G + ve bacteria or a 10^-4 dilution for G - ve organisms; read-out: MIC Broth.
From the text: as §1

Assay [11] deals with Klebsiella aerogenes A. The experiment in a line: MIC, microtitre using Nutrient broth. The note with it: Klebsiella aerogenes A; Microtitre using nutrient broth; inoculum 0.001 ml of a 10^-2 dilution for G + ve bacteria or a 10^-4 dilution for G - ve organisms; read-out: MIC Broth.
From the text: as §1

The subject of assay [12] is Proteus mirabilis C977. The experiment in a line: MIC, microtitre using Nutrient broth. To be noted: Proteus mirabilis C977; Microtitre using nutrient broth; inoculum 0.001 ml of a 10^-2 dilution for G + ve bacteria or a 10^-4 dilution for G - ve organisms; read-out: MIC Broth.
From the text: as §1

Assay [13] relates to Pseudomonas aeruginosa A. The experiment in a line: MIC, microtitre using Nutrient broth. To be noted: Pseudomonas aeruginosa A; Microtitre using nutrient broth; inoculum 0.001 ml of a 10^-2 dilution for G + ve bacteria or a 10^-4 dilution for G - ve organisms; read-out: MIC Broth.
From the text: as §1

The test system of assay [14] is Staphylococcus aureus Russell. The experiment in a line: MIC, microtitre using Nutrient broth. The note with it: Staphylococcus aureus Russell; Microtitre using nutrient broth; inoculum 0.001 ml of a 10^-2 dilution for G + ve bacteria or a 10^-4 dilution for G - ve organisms; read-out: MIC Broth.
From the text: as §1

Molecules are shown by their SMILES. Some results are limits rather than exact numbers.

Turning to `O=C(O)C1=C(CO)SC2CC(=O)N12` (centres unmarked) [compound 19, Sodium 2-Hydroxymethyl penem-3-carboxylate], the MIC in the assay on Bacillus subtilis A came to 2.5 µg/mL; with Escherichia coli 0111 [1], 10 µg/mL; with Klebsiella aerogenes A [2], 10 µg/mL; in the assay on Proteus mirabilis C977 [3], 25 µg/mL; in the assay on Proteus morganii I580, 25 µg/mL; with Proteus rettgeri WM16, 50 µg/mL. The MIC is 50 µg/mL in the assay on Proteus vulgaris W091; 50 µg/mL in the assay with Pseudomonas aeruginosa A [4]; 10 µg/mL in assay [5]; 10 µg/mL in the assay on Serratia marcescens US20; 10 µg/mL in the assay with Shigella sonnei MB 11967; 25 µg/mL in assay [6]. The MIC in assay [7] was 2.5 µg/mL; in [8], 2.5 µg/mL; with Streptococcus faecalis I, 100 µg/mL; in assay [9], 1 µg/mL; in the assay on Escherichia coli 0111 [10], 31 µg/mL; in the assay on Escherichia coli JT 39, 62 µg/mL. For the same compound, the minimum inhibitory concentration (MIC) was found to be 31 µg/mL in the assay with Klebsiella aerogenes A [11], 62 µg/mL in the assay with Proteus mirabilis C977 [12], 62 µg/mL with Pseudomonas aeruginosa A [13] and 8 µg/mL in [14].

As for `CC(=O)OCC1=C(C(=O)O)N2C(=O)CC2S1` (centres unmarked) [compound 21, Sodium 2-Acetoxymethyl penem-3-carboxylate], the MIC turned out to be 2.5 µg/mL in the assay on Bacillus subtilis A; 25 µg/mL in the assay on Escherichia coli 0111 [1]; 10 µg/mL with Klebsiella aerogenes A [2]; 10 µg/mL in the assay with Proteus mirabilis C977 [3]; 10 µg/mL with Proteus morganii I580; 50 µg/mL in the assay on Proteus rettgeri WM16. The MIC in the assay on Proteus vulgaris W091 is 50 µg/mL; in the assay on Pseudomonas aeruginosa A [4], > 100 µg/mL; in assay [5], 25 µg/mL; in the assay on Serratia marcescens US20, 25 µg/mL; in the assay on Shigella sonnei MB 11967, 50 µg/mL; in [6], 50 µg/mL. The MIC turned out to be 10 µg/mL in assay [7]; 10 µg/mL in assay [8]; 100 µg/mL in the assay with Streptococcus faecalis I; 2.5 µg/mL in [9]; 8 µg/mL with Escherichia coli 0111 [10]; 31 µg/mL with Escherichia coli JT 39. Also, the MIC in the assay on Klebsiella aerogenes A [11] turned out to be 8 µg/mL; in the assay with Proteus mirabilis C977 [12] it was 8 µg/mL; in the assay on Pseudomonas aeruginosa A [13], 500 µg/mL; in assay [14], 8 µg/mL.

In general, MIC refers to the least concentration at which growth counts as inhibited.
